Laboratory results from ChEMBL document CHEMBL5712916, “Frequent upregulation of G9a promotes RelB-dependent proliferation and survival in multiple myeloma” (Exp Hematol Oncol, 2020).
The source made the active and inactive calls. No cut-off for these calls is given here.

How the values were obtained:
KMS-12-BM [1] = assay: Cytotoxicity against human KMS-12-BM cells assessed as reduction in cell viability measured after 72 hrs by Celltiter-glo luminescent cell viability assay; format: functional, cell-based
RPMI-8226 [2] = assay: Cytotoxicity against human RPMI-8226 cells assessed as reduction in cell viability measured after 72 hrs by MTS assay; format: functional, cell-based; conditions: RPMI-8226, 72 h
KMS-12-BM [3] = assay: Effect on G9a expression in human KMS-12-BM cells at cytotoxic IC50 measured after 72 hrs by Western blot analysis; format: functional, cell-based
[4] = biological target: T1, Histone-lysine N-methyltransferase EHMT2 (Homo sapiens) (UniProt Q96KQ7); assay: Inhibition of G9a in human JJN-3 cells assessed as decrease in NFKB2 expression at cytotoxic IC50 measured after 72 hrs by Western blot analysis; format: cell-based
T1 sequence (whole entry): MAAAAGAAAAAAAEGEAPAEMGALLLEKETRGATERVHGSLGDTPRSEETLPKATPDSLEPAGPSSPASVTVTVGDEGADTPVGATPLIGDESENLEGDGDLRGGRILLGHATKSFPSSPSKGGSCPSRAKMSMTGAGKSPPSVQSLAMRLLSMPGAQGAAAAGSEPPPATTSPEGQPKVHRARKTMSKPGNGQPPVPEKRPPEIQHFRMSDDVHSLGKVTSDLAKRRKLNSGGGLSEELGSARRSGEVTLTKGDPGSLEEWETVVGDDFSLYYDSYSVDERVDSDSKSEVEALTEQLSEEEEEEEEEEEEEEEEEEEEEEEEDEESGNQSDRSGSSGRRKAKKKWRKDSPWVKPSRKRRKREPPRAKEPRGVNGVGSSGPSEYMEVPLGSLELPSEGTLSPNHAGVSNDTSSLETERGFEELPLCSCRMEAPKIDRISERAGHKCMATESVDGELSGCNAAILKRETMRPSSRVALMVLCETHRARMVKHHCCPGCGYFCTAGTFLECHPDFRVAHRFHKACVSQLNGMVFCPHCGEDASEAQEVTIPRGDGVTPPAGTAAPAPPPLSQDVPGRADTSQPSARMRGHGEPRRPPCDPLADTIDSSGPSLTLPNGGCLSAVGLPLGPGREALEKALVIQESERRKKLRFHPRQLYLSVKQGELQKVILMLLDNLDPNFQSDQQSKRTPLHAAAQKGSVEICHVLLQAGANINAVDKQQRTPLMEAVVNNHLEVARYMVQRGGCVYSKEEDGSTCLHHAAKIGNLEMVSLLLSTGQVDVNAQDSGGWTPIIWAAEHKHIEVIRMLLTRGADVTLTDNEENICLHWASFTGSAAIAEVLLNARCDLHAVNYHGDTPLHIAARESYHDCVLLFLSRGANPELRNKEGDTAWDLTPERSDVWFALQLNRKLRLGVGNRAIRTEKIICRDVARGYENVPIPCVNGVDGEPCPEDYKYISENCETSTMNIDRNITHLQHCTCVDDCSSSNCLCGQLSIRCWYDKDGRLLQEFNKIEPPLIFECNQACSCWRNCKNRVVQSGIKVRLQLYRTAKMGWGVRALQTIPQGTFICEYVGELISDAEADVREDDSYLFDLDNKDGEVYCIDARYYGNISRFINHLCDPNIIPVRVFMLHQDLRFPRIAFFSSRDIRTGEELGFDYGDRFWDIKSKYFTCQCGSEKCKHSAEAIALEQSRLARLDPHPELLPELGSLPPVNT

[5] = Cytotoxicity against human Bortezomib-resistant RPMI-8226 cells assessed as reduction in cell viability measured after 72 hrs by MTS assay; format: functional, cell-based; conditions: Bortezomib-resistant RPMI-8226, 72 h
[6] = biological target: T1, Histone-lysine N-methyltransferase EHMT2 (Homo sapiens); assay: Inhibition of G9a in human JJN-3 cells assessed as decrease in p100 expression at cytotoxic IC50 measured after 72 hrs by Western blot analysis; format: cell-based
JJN-3 [7] = assay: Cytotoxicity against human JJN-3 cells expressing shNT assessed as reduction in cell viability measured after 72 hrs by Celltiter-glo luminescent cell viability assay; format: functional, cell-based; conditions: JJN-3, 72 h
RPMI-8226 [8] = assay: Cytotoxicity against human RPMI-8226 cells assessed as reduction in cell viability measured after 72 hrs by Celltiter-glo luminescent cell viability assay; format: functional, cell-based; conditions: RPMI-8226, 72 h
KMS-12-BM [9] = assay: Cytotoxicity against human KMS-12-BM cells assessed as reduction in colony size incubated for 14 days by colony formation assay; format: functional, cell-based; conditions: time 14.0 day
KMS-12-BM [10] = assay: Cytotoxicity against human KMS-12-BM cells expressing shG9a assessed as reduction in cell viability measured after 72 hrs by Celltiter-glo luminescent cell viability assay; format: functional, cell-based
[11] = biological target: T1, Histone-lysine N-methyltransferase EHMT2 (Homo sapiens); assay: Inhibition of G9a in human JJN-3 cells assessed as increase in BMF mRNA expression at cytotoxic IC50 measured after 72 hrs by qRT-PCR analysis; format: cell-based
[12] = biological target: Histone-lysine N-methyltransferase EZH2 (Homo sapiens, UniProt Q15910); assay: Inhibition of EZH2 (unknown origin)
KMS-12-BM [13] = assay: Cytotoxicity against human KMS-12-BM cells assessed as decrease in number of colonies incubated for 14 days by colony formation assay; format: functional, cell-based; conditions: time 14.0 day
[14] = Cytotoxicity against human MSC cells assessed as reduction in cell viability measured after 72 hrs by MTS assay; format: toxicity, cell-based
[15] = Cytotoxicity against human CD38-positive cells assessed as reduction in cell viability measured after 72 hrs by Celltiter-glo luminescent cell viability assay; format: toxicity, cell-based
[16] = biological target: T1, Histone-lysine N-methyltransferase EHMT2 (Homo sapiens); assay: Inhibition of G9a in human JJN-3 cells assessed as increase in Bim mRNA expression at cytotoxic IC50 measured after 72 hrs by qRT-PCR analysis; format: cell-based
KMS-12-BM [17] = assay: Cytotoxicity against human KMS-12-BM cells assessed as reduction in cell viability measured after 72 hrs by MTS assay; format: functional, cell-based
[18] = biological target: T1, Histone-lysine N-methyltransferase EHMT2 (Homo sapiens); assay: Inhibition of G9a in human KMS-12-BM cells assessed as reduction in H3K9me2 level at cytotoxic IC50 measured after 72 hrs by Western blot analysis; format: cell-based
JJN-3 [19] = assay: Cytotoxicity against human JJN-3 cells assessed as reduction in colony size incubated for 14 days by colony formation assay; format: functional, cell-based; conditions: time 14.0 day
JJN-3 [20] = assay: Cytotoxicity against human JJN-3 cells expressing shG9a assessed as reduction in cell viability measured after 72 hrs by Celltiter-glo luminescent cell viability assay; format: functional, cell-based; conditions: JJN-3, 72 h
[21] = biological target: T1, Histone-lysine N-methyltransferase EHMT2 (Homo sapiens); assay: Inhibition of G9a in human JJN-3 cells assessed as decrease in p52 expression at cytotoxic IC50 measured after 72 hrs by Western blot analysis; format: cell-based
[22] = biological target: T1, Histone-lysine N-methyltransferase EHMT2 (Homo sapiens); assay: Inhibition of G9a in human JJN-3 cells assessed as reduction in RelB mRNA expression at cytotoxic IC50 measured after 72 hrs by qRT-PCR analysis; format: cell-based
JJN-3 [23] = assay: Cytotoxicity against human JJN-3 cells assessed as reduction in cell viability measured after 72 hrs by MTS assay; format: functional, cell-based; conditions: JJN-3, 72 h
KMS-12-BM [24] = assay: Cytotoxicity against human KMS-12-BM cells expressing shNT assessed as reduction in cell viability measured after 72 hrs by Celltiter-glo luminescent cell viability assay; format: functional, cell-based
JJN-3 [25] = assay: Cytotoxicity against human JJN-3 cells assessed as decrease in number of colonies incubated for 14 days by colony formation assay; format: functional, cell-based; conditions: time 14.0 day
JJN-3 [26] = assay: Cytotoxicity against human JJN-3 cells assessed as reduction in cell viability measured after 72 hrs by Celltiter-glo luminescent cell viability assay; format: functional, cell-based; conditions: JJN-3, 72 h
[27] = Cytotoxicity against human Bortezomib-resistant RPMI-8226 cells assessed as reduction in cell viability measured after 72 hrs by Celltiter-glo luminescent cell viability assay; format: functional, cell-based; conditions: Bortezomib-resistant RPMI-8226, 72 h

Sequence of Histone-lysine N-methyltransferase EZH2 (Q15910 whole entry): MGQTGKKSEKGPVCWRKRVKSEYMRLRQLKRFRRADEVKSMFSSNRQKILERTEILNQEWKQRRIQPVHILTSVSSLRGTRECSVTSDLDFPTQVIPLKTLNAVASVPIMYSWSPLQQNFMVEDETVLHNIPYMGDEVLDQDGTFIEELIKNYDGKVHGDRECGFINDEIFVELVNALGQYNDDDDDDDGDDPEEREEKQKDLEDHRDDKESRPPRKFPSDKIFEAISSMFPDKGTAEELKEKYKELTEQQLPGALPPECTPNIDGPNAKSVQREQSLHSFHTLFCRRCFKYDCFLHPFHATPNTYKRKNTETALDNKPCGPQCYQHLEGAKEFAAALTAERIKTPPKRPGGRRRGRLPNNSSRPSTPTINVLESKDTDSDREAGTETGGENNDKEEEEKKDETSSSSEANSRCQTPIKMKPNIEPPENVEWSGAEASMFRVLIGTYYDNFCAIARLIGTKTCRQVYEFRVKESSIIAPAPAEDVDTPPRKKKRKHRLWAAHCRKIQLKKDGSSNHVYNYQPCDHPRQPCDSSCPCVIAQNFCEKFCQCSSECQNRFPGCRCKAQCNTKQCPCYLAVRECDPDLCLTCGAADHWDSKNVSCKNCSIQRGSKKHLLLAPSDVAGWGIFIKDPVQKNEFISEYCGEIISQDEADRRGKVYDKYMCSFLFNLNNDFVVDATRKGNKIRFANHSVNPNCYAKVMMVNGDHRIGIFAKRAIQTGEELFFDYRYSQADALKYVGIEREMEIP

With `COc1cc2c(NC3CCN(C(C)C)CC3)nc(N3CCC(F)(F)CC3)nc2cc1OCCCN1CCCC1` as the compound, how does the IC50 (KMS-12-BM [1]) read?
Its IC50 is 10.8 µM.

What about the IC50 (RPMI-8226 [2]) of the same compound?
The IC50 was 26.9 µM.

What about the Activity (KMS-12-BM [3]) of the same compound?
Its Activity is “inactive”.

What about the inhibition [4] of the same compound?
Its inhibition is “Active”.

And the IC50 [5]?
Its IC50 is 12.6 µM.

What about the inhibition [6] of the same compound?
Its inhibition is “Active”.

What about the IC50 (JJN-3 [7]) of the same compound?
Its IC50 is 6.81 µM.

What about the IC50 (RPMI-8226 [8]) of the same compound?
The IC50 was 22 µM.

What about the Activity (KMS-12-BM [9]) of the same compound?
The Activity was “Active”.

What about the IC50 (KMS-12-BM [10]) of the same compound?
The IC50 was 58.7 µM.

And the inhibition [11]?
The inhibition was “Active”.

And the IC50 [12]?
The IC50 was 5 µM.

And the Activity (KMS-12-BM [13])?
Its Activity is “Active”.

What about the IC50 at 72 h [14] of the same compound?
The IC50 at 72 h was 36.9 µM.

And the IC50 at 72 h [15]?
The IC50 at 72 h was 6.91 µM.

What about the inhibition [16] of the same compound?
Its inhibition is “Active”.

And the IC50 (KMS-12-BM [17])?
The IC50 was 20.3 µM.

And the inhibition [18]?
Its inhibition is “Active”.

And the Activity (JJN-3 [19])?
The Activity was “Active”.

What about the IC50 (JJN-3 [20]) of the same compound?
The IC50 was 17.8 µM.

And the inhibition [21]?
Its inhibition is “Active”.

What about the inhibition [22] of the same compound?
The inhibition was “Active”.

What about the IC50 (JJN-3 [23]) of the same compound?
Its IC50 is 19 µM.

And the IC50 (KMS-12-BM [24])?
Its IC50 is 23.7 µM.

And the Activity (JJN-3 [25])?
Its Activity is “Active”.

What about the IC50 (JJN-3 [26]) of the same compound?
Its IC50 is 5.85 µM.

What about the IC50 [27] of the same compound?
Its IC50 is 25.4 µM.
